According to PubChem BioAssay AID1918995 (Molecular Pharmacology Branch, DTP, NCI, 2023):
“And” between values parts separate entries of the source, which are not always exact repeats. Equal values may be shown once. Each block holds one molecule with its values, some of them ahead of it.

Test system: 324938-238-R-J1-PDC complex spheroid growth, % test/control
Assay: Anticancer human tumor 324938-238-R-J1-PDC patient-derived bladder carcinoma cell line growth inhibition [AhR]
Conditions: for IC50: curve of first compound; for viability, T/C: stronger effect = lower value
Procedure, shortened: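 Agents were dosed in half-log steps down from roughly clinical Cmax, or from 10 microM where Cmax was unknown, alone and with AhR antagonists. Read-out: percent test/control growth of tumor spheroids containing HUVEC and MSC stromal cells.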

[1] = second compound 0.1 µM, first compound 0.00316 µM
[2] = second compound 0.1 µM, first compound 0.01 µM
[3] = second compound 0.1 µM, first compound 0.0316 µM
[4] = second compound 0.1 µM, first compound 0.1 µM
[5] = second compound 0.316 µM, first compound 0.00316 µM
[6] = second compound 0.316 µM, first compound 0.01 µM
[7] = second compound 0.316 µM, first compound 0.0316 µM
[8] = second compound 0.316 µM, first compound 0.1 µM
[9] = second compound 1 µM, first compound 0.00316 µM
[10] = second compound 1 µM, first compound 0.01 µM
[11] = second compound 1 µM, first compound 0.0316 µM
[12] = second compound 1 µM, first compound 0.1 µM
[13] = second compound 3.16 µM, first compound 0.00316 µM
[14] = second compound 3.16 µM, first compound 0.01 µM
[15] = second compound 3.16 µM, first compound 0.0316 µM
[16] = second compound 3.16 µM, first compound 0.1 µM
[17] = second compound 10 µM, first compound 0.00316 µM
[18] = second compound 10 µM, first compound 0.01 µM
[19] = second compound 10 µM, first compound 0.0316 µM
[20] = second compound 10 µM, first compound 0.1 µM
[21] = second compound 0.1 µM, first compound 0.316 µM
[22] = second compound 0.1 µM, first compound 1 µM
[23] = second compound 0.316 µM, first compound 0.316 µM
[24] = second compound 0.316 µM, first compound 1 µM
[25] = second compound 1 µM, first compound 0.316 µM
[26] = second compound 1 µM, first compound 1 µM
[27] = second compound 3.16 µM, first compound 0.316 µM
[28] = second compound 3.16 µM, first compound 1 µM
[29] = second compound 10 µM, first compound 0.316 µM
[30] = second compound 10 µM, first compound 1 µM
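Note: spheroids exposed to agents for seven days before viability read.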

IC50 (second compound 0.1 µM): > 100 nM
IC50 (second compound 0.316 µM): > 100 nM
IC50 (second compound 1 µM): > 100 nM
IC50 (second compound 3.16 µM): > 100 nM
IC50 (second compound 10 µM): < 0.316 nM
SMILES: Cn1ncnc1C1c2n[nH]c(=O)c3cc(F)cc(c23)NC1c1ccc(F)cc1 (stereo unspecified) + Cc1cncc(-c2nc(NCCc3c[nH]c4ccccc34)c3ncn(C(C)C)c3n2)c1
viability, T/C (second compound 0.1 µM, first compound 0.000316 µM): 92.1%
viability, T/C (second compound 0.1 µM, first compound 0.001 µM): 110%
viability, T/C [1]: 105%
viability, T/C [2]: 94.5%
viability, T/C [3]: 120%
viability, T/C [4]: 86.2%
viability, T/C (second compound 0.316 µM, first compound 0.000316 µM): 108%
viability, T/C (second compound 0.316 µM, first compound 0.001 µM): 113%
viability, T/C [5]: 138%
viability, T/C [6]: 81.6%
viability, T/C [7]: 112%
viability, T/C [8]: 105%
viability, T/C (second compound 1 µM, first compound 0.000316 µM): 78.9%
viability, T/C (second compound 1 µM, first compound 0.001 µM): 142%
viability, T/C [9]: 116%
viability, T/C [10]: 112%
viability, T/C [11]: 106%
viability, T/C [12]: 134%
viability, T/C (second compound 3.16 µM, first compound 0.000316 µM): 93.7%
viability, T/C (second compound 3.16 µM, first compound 0.001 µM): 112%
viability, T/C [13]: 92.6%
viability, T/C [14]: 98.1%
viability, T/C [15]: 94.2%
viability, T/C [16]: 99.3%
viability, T/C (second compound 10 µM, first compound 0.000316 µM): 9.29%
viability, T/C (second compound 10 µM, first compound 0.001 µM): 12.6%
viability, T/C [17]: 9.9%
viability, T/C [18]: 13%
viability, T/C [19]: 9.12%
viability, T/C [20]: 22.1%

IC50 (second compound 0.1 µM): 3180 nM
IC50 (second compound 0.316 µM): 3490 nM
IC50 (second compound 1 µM): 3180 nM
IC50 (second compound 3.16 µM): 3390 nM
IC50 (second compound 10 µM): 3550 nM
SMILES: O=C(C=Cc1cccc(S(=O)(=O)Nc2ccccc2)c1)NO + CC(CO)NC(=O)c1cc(-c2ccc(Cl)cc2)nn(-c2cnn(C)c2)c1=O
viability, T/C [3]: 103%
viability, T/C [4]: 108%
viability, T/C [21]: 96.1%
viability, T/C [22]: 67.4%
viability, T/C (second compound 0.1 µM, first compound 3.16 µM): 56.7%
viability, T/C (second compound 0.1 µM, first compound 10 µM): 3.34%
viability, T/C [7]: 94%
viability, T/C [8]: 92.7%
viability, T/C [23]: 85.4%
viability, T/C [24]: 73.5%
viability, T/C (second compound 0.316 µM, first compound 3.16 µM): 56%
viability, T/C (second compound 0.316 µM, first compound 10 µM): 10.6%
viability, T/C [11]: 93.2%
viability, T/C [12]: 93.9%
viability, T/C [25]: 89.3%
viability, T/C [26]: 65%
viability, T/C (second compound 1 µM, first compound 3.16 µM): 55.1%
viability, T/C (second compound 1 µM, first compound 10 µM): 6.82%
viability, T/C [15]: 74.6%
viability, T/C [16]: 83.9%
viability, T/C [27]: 77.4%
viability, T/C [28]: 67%
viability, T/C (second compound 3.16 µM, first compound 3.16 µM): 54.4%
viability, T/C (second compound 3.16 µM, first compound 10 µM): 4.74%
viability, T/C [19]: 70.6%
viability, T/C [20]: 78.8%
viability, T/C [29]: 76.9%
viability, T/C [30]: 71.6%
viability, T/C (second compound 10 µM, first compound 3.16 µM): 55.4%
viability, T/C (second compound 10 µM, first compound 10 µM): 2.36%

IC50 (second compound 0.1 µM): > 1000 nM
IC50 (second compound 0.316 µM): > 1000 nM
IC50 (second compound 1 µM): > 1000 nM
IC50 (second compound 3.16 µM): > 1000 nM
IC50 (second compound 10 µM): < 3.16 nM
SMILES: CC1COCCN1c1cc(-c2ccnn2C)c2ccnc(-c3ccn[nH]3)c2n1 (stereo unspecified) + Cc1cncc(-c2nc(NCCc3c[nH]c4ccccc34)c3ncn(C(C)C)c3n2)c1
viability, T/C [1]: 87.9%
viability, T/C [2]: 123%
viability, T/C [3]: 112%
viability, T/C [4]: 89.6%
viability, T/C [21]: 81.2%
viability, T/C [22]: 54.9%
viability, T/C [5]: 121%
viability, T/C [6]: 150%
viability, T/C [7]: 114%
viability, T/C [8]: 81.3%
viability, T/C [23]: 81.6%
viability, T/C [24]: 70.2%
viability, T/C [9]: 114%
viability, T/C [10]: 122%
viability, T/C [11]: 137%
viability, T/C [12]: 88%
viability, T/C [25]: 72.2%
viability, T/C [26]: 53.3%
viability, T/C [13]: 67.2%
viability, T/C [14]: 60.2%
viability, T/C [15]: 77.6%
viability, T/C [16]: 70.6%
viability, T/C [27]: 67.8%
viability, T/C [28]: 72.2%
viability, T/C [17]: 4.75%
viability, T/C [18]: 5.66%
viability, T/C [19]: 2.57%
viability, T/C [20]: 2.16%
viability, T/C [29]: 2.35%
viability, T/C [30]: 5.11%

SMILES: COc1cccc2c1C(=O)c1c(O)c3c(c(O)c1C2=O)CC(O)(C(=O)CO)CC3OC1CC(N)C(O)C(C)O1 (stereo unspecified)
viability, T/C (compound 0.0316 µM): 69.2% and 39.5% and 37.4%
viability, T/C (compound 0.1 µM): 86% and 31.1% and 26.5%
viability, T/C (compound 0.316 µM): 53.9% and 16.3% and 19.6%
viability, T/C (compound 1 µM): 2.48% and 4.61% and 4.55%
viability, T/C (compound 3.16 µM): 1.18% and 0.26% and 0.23%
viability, T/C (compound 10 µM): 0.6% and 0.23% and 0.35%
